Source: the supplement of paper PMC10331698
± gives the standard deviation of the averaged measurements.

Columns and labels:
Test in all cases: level (log10 ratio to DMSO vehicle control); higher = higher biomarker level / cell amount than vehicle control
Details in all cases: in DMSO
[1] = compound: O=C(O)C(F)(F)C(F)(F)C(F)(F)C(F)(F)C(F)(F)C(F)(F)C(F)(F)C(F)(F)Cl [9-Chloro-perfluorononanoic acid]
Protocol: (§1)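 BioMAP Diversity Plus panel of 12 human primary cell co-culture systems (3C, 4H, LPS, SAg, BT, BF4T, BE3C, CASM3C, HDF3CGF, KF3CT, MyoF, Mphg). Compounds were added 1 h before stimulation and left for 24 h (MyoF 48 h; BT 72 h for soluble read-outs or 6 d for IgG). Biomarkers were read by ELISA, cytotoxicity by SRB, PBMC viability and proliferation by Alamar Blue. Each well value was divided by the mean of 8 DMSO control wells on the same plate and log10 transformed; duplicate blinded samples were tested at 4 concentrations.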

1H,1H-Heptafluorobutanol = compound: OCC(F)(F)C(F)(F)C(F)(F)F [1H,1H-Heptafluorobutanol]
Protocol: as §1

[2] = compound: C=C(C)C(=O)OCC(F)(F)C(F)(F)C(F)(F)C(F)(F)C(F)(F)C(F)(F)C(F)(F)F
Protocol: as §1

Perfluorohexanoic acid = compound: O=C(O)C(F)(F)C(F)(F)C(F)(F)C(F)(F)C(F)(F)F [Perfluorohexanoic acid]
Protocol: as §1

[3] = compound: O=S(=O)(O)C(F)(F)C(F)(F)C(F)(F)C(F)(F)C(F)(F)C(F)(F)C(F)(F)C(F)(F)F [Perfluorooctanesulfonic acid]
Protocol: as §1

[4] = compound: FC(F)(F)C(F)(F)C(F)(F)C(F)(F)C(F)(F)C(F)(F)C(F)(F)CCI [1-Iodo-1H,1H,2H,2H-perfluorononane]
Protocol: as §1

[5] = compound: O=P(O)(O)CCC(F)(F)C(F)(F)C(F)(F)C(F)(F)C(F)(F)C(F)(F)C(F)(F)C(F)(F)F [((Perfluorooctyl)ethyl)phosphonic acid]
Protocol: as §1

Row | Test System | level (log10) ([1]; 6700 nM) | level (log10) ([1]; 20000 nM) | level (log10) (1H,1H-Heptafluorobutanol; 6700 nM) | level (log10) (1H,1H-Heptafluorobutanol; 20000 nM) | level (log10) (1H,1H-Heptafluorobutanol; 60000 nM) | level (log10) ([2]; 6700 nM) | level (log10) ([2]; 20000 nM) | level (log10) (Perfluorohexanoic acid; 6700 nM) | level (log10) (Perfluorohexanoic acid; 20000 nM) | level (log10) (Perfluorohexanoic acid; 60000 nM) | level (log10) ([3]; 6700 nM) | level (log10) ([3]; 20000 nM) | level (log10) ([3]; 60000 nM) | level (log10) ([4]; 6700 nM) | level (log10) ([4]; 20000 nM) | level (log10) ([5]; 6700 nM) | level (log10) ([5]; 20000 nM) | level (log10) ([5]; 60000 nM)
1 | 3C:CD87/uPAR | -0.013 ± 0.017 | -0.011 ± 0.038 | -0.011 ± 0.025 | 0.0085 ± 0.023 | 0.026 ± 0.021 | -0.0235 ± 0.054 | -0.015 ± 0.048 | -0.0065 ± 0.0035 | -0.0115 ± 0.00071 | -0.01 ± 0.0099 | 0.04 ± 0.037 | 0.0285 ± 0.022 | 0.0235 ± 0.036 | 0.0105 ± 0.019 | 0.0225 ± 0.016 | 0.0455 ± 0.043 | 0.071 ± 0.025 | 0.0885 ± 0.059
2 | 3C:CXCL8/IL-8 | 0.005 ± 0.037 | 0.0235 ± 0.063 | 0.0005 ± 0.067 | -0.0055 ± 0.079 | 0.0185 ± 0.093 | -0.0085 ± 0.032 | 0.03 ± 0.014 | -0.006 ± 0.0042 | 0.005 ± 0.0057 | 0.0635 ± 0.037 | 0.009 ± 0.024 | 0.0095 ± 0.026 | 0.049 ± 0.047 | 0.0085 ± 0.011 | 0.0165 ± 0.005 | 0.0315 ± 0.019 | 0.03 ± 0.018 | 0.0685 ± 0.0092
3 | 3C:CXCL9/MIG | -0.005 ± 0.0042 | 0.0065 ± 0.0078 | 0.001 ± 0.021 | 0.002 ± 0.014 | 0 ± 0.017 | -0.001 ± 0.017 | 0.015 ± 0.0099 | -0.0065 ± 0.012 | -0.0045 ± 0.00071 | 0.0025 ± 0.012 | 0.0035 ± 0.00071 | -0.002 ± 0.0057 | 0.009 ± 0.0057 | 0.002 ± 0.0042 | 0.007 ± 0.013 | 0.006 ± 0.0057 | -0.0045 ± 0.005 | 0.0185 ± 0.0064
4 | 3C:HLA-DR | -0.0105 ± 0.0078 | 0.004 ± 0.021 | -0.0025 ± 0.0021 | 0.0035 ± 0.012 | 0.005 ± 0.014 | 0.0085 ± 0.011 | -0.0005 ± 0.019 | 0.002 ± 0.0042 | 0.004 ± 0.014 | -0.002 ± 0.0085 | 0.0005 ± 0.011 | -0.0095 ± 0.021 | 0.0095 ± 0.023 | -0.001 ± 0.017 | 0.0155 ± 0.025 | 0.005 ± 0.0085 | 0.001 ± 0.0042 | -0.0285 ± 0.023
